Measured values reported in PubChem BioAssay (NCI).
Values joined by “and” are separate entries in the source; they are usually repeats but may differ in a detail not shown here. Equal entries are not always repeated.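 Method: 48-hour compound exposure of cells in 96-well plates, five concentrations, linear interpolation of endpoints. GI50 marks 50% less growth. At the TGI there is no net growth.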

How the values were obtained:
Test in all cases: NCI tumour cell line growth inhibition, 48 h
786-0 renal = tested on: 786-0 renal
HS 578T breast = tested on: HS 578T breast
IGROV1 ovarian = tested on: IGROV1 ovarian
NCI-H23 lung = tested on: NCI-H23 lung
OVCAR-5 ovarian = tested on: OVCAR-5 ovarian
RXF 393 renal = tested on: RXF 393 renal
UO-31 renal = tested on: UO-31 renal
SK-OV-3 ovarian = tested on: SK-OV-3 ovarian
MCF7 breast = tested on: MCF7 breast
PC-3 prostate = tested on: PC-3 prostate

Row | SMILES | GI50 (786-0 renal) [µM] | TGI (786-0 renal) | GI50 (HS 578T breast) [µM] | TGI (HS 578T breast) [µM] | GI50 (IGROV1 ovarian) | TGI (IGROV1 ovarian) [µM] | GI50 (NCI-H23 lung) | TGI (NCI-H23 lung) [µM] | GI50 (OVCAR-5 ovarian) [µM] | TGI (OVCAR-5 ovarian) | GI50 (RXF 393 renal) | TGI (RXF 393 renal) [µM] | GI50 (UO-31 renal) [µM] | TGI (UO-31 renal) [µM] | GI50 (SK-OV-3 ovarian) [µM] | TGI (SK-OV-3 ovarian) | GI50 (MCF7 breast) [µM] | TGI (MCF7 breast) [µM] | GI50 (PC-3 prostate) | TGI (PC-3 prostate)
1 | COc1cc(-c2nc(-c3nnc(-c4ccc(F)c(Cl)c4)o3)c3ccccn23)cc(OC)c1OC | 2.93 | 78.8 µM | 2.51 | 29.2 | 3.61 µM | > 100 | 4 µM | > 100 | 4.57 | > 100 µM | 2.62 µM | 7 | 2.2 | 7.64 |  |  |  |  |  | 
2 | COc1cc[c]([Sb]([Br])([CH]=C(C)C)([CH]=C(C)C)[CH]=C(C)C)cc1 | 13.6 | > 100 µM |  |  | 3.06 µM | 66.1 | 4.72 µM | 34.6 |  |  | 8.8 µM | 59.1 | 29.5 | 73.1 | 8.94 | 48.3 µM |  |  |  | 
3 | NC(=S)N/N=C1\C(=O)N(CCc2ccccc2)C(=O)C1C(=O)NCCc1ccccc1 (centres undefined) |  | > 100 µM |  |  |  | > 100 |  | > 100 |  | > 100 µM |  | > 100 |  | > 100 |  | > 100 µM |  |  |  | 
4 | COc1ccc2c(c1)C(=O)c1c-2c(OCCN(C)C)nc2cc(OC)ccc12 | 1.46 | 2.84 µM | 2.84 | 9.76 | 1.01 µM | 6.03 | 1.36 µM | 3.5 | 1.9 | 4.65 µM | 1.54 µM | 4.52 | 1.16 | 2.66 |  |  | 0.348 | 1.6 | 1.24 µM | 3.69 µM
5 | O=C(O)c1c([N+](=O)[O-])cc(C(F)(F)F)cc1[N+](=O)[O-] |  | > 100 µM |  |  |  | > 100 |  | > 100 |  | > 100 µM |  | > 100 |  | > 100 |  |  |  |  |  | 
6 | CCCCNC(=O)OCC(COc1ccccc1OC)OC(=O)NCCCC (centres undefined) |  | > 100 µM |  |  |  | > 100 |  | > 100 |  |  |  | > 100 |  | > 100 |  | > 100 µM |  |  |  | 
7 | COc1ccc(C(=O)Nc2ccc(S(=O)(=O)NCC(=O)O)cc2)cc1 |  | > 100 µM |  |  |  | > 100 |  | > 100 |  | > 100 µM |  | > 100 |  | > 100 |  | > 100 µM |  |  |  | 
8 | COc1cc(OC)cc(-c2ccc(-c3ccc(C(=N)N)s3)s2)c1 | 1.23 | 3.06 µM | 1.35 | 3.22 | 2.03 µM | 3.99 | 1.66 µM | 3.34 | 1.5 | 3.19 µM | 1.25 µM | 2.99 | 1.51 | 3.31 |  |  | 0.271 | 1.22 | 1.42 µM | 2.93 µM
9 | COc1ccc2nc3ccccc3c(NCCCCCN(CCCl)CCCl)c2c1 |  | 0.137 µM |  |  |  |  |  | 0.986 |  | 1.35 µM |  |  |  | 0.418 |  |  |  |  |  | 
10 | COC1=C(C)C(=O)C2=C(C1=O)C(CO)N1C(C#N)C3CC4C(C1C2N1CCOC41)N3C (centres undefined) | 0.00243 | 1.31 µM and 1.55 µM |  |  | 0.00217 µM and 0.0216 µM |  | 0.00173 µM and < 0.0134 µM |  |  | 1.09 µM and 0.587 µM and 1.98 µM | 0.00201 µM and 0.0178 µM |  |  |  |  | 1.32 µM and 2.7 µM and 1.7 µM |  |  | 0.00946 µM and 0.0889 µM and 0.0764 µM | 0.663 µM and 0.387 µM
11 | O=c1c2cc(Br)ccc2nc(-c2ccccc2)n1NCC1(O)OCC(O)C(O)C1O (centres undefined) |  | > 100 µM |  |  |  |  |  | > 100 |  | > 100 µM |  | > 100 |  | > 100 |  | > 100 µM |  |  |  | 
12 | COc1cc(-c2nc3ccccc3[nH]2)ccc1OCC(=O)N=Nc1c(O)[nH]c2ccc(Cl)cc12 | 1.84 | 3.53 µM |  |  | 1.52 µM | 3.05 | 1.73 µM | 3.48 | 1.97 | 4.82 µM | 1.8 µM | 3.48 | 52.3 | > 100 | 1.9 | 3.93 µM | 0.57 | 2.39 | 1.48 µM | 3.06 µM
13 | CSc1c(S(C)=O)[nH]c2cc(Br)cc(Br)c12 (centres undefined) |  | 31.9 µM |  |  |  | > 100 |  | 50.4 |  |  |  | 33.6 |  | 48.7 |  | 61.9 µM |  |  |  | 
14 | C=CCC(N[C@@H](CO)c1ccccc1)c1ccccn1 (some centres undefined) | > 100 | > 100 µM | > 100 | > 100 | > 100 µM | > 100 | 60.2 µM | > 100 | > 100 | > 100 µM | > 100 µM | > 100 | 93.4 | > 100 | > 100 | > 100 µM |  |  | > 100 µM | > 100 µM
